This data set addresses T1, α-amylase from porcine pancreas (Sus scrofa, UniProt P00690).
T1 sequence (P00690 16-511): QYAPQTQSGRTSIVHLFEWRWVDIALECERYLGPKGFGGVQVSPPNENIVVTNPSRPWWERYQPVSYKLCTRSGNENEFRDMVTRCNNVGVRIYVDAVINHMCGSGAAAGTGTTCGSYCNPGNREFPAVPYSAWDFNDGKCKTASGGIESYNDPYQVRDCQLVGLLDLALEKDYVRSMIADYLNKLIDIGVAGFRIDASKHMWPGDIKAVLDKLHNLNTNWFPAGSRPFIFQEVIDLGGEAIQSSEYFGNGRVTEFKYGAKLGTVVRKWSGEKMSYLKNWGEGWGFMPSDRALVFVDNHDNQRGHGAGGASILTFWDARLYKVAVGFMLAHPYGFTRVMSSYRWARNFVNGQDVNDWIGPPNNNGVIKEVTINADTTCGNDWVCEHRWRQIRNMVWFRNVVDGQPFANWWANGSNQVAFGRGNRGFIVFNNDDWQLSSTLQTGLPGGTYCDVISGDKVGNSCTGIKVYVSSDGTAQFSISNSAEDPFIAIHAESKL

From patent US20070202577A1, “Method For The Production Of Hyperbranched Polysaccharide Fractions” (priority 2004, published 2007) come the findings set out here.

Procedure: The solution was heated to 37.0° C., and 0.5 I.U./ml α-amylase from porcine pancreas (from Roche; AS, Art. No. 102 814) was added. Samples were taken after 1 and 3 hours, the enzyme was inactivated by heat, and the molecular weight of the remaining high molecular weight fraction was determined by HPGPC.

As to hydroxyethyl starch [Voluven], the “rate of degradation with α-amylase, compared with the hyperbranched amylopectin fraction from example 7” value was “comparable”. For the setting “pH 7.2”, the “initial weight average molecular weight” value was 140 200 daltons, the “weight average molecular weight after hydrolysis for 1 hour” value is recorded as 54 700 daltons and the “weight average molecular weight after hydrolysis for 3 hours” value was 33 700 daltons.
